The values below come from patent US20120251527A1, “PODOCYTE SPECIFIC ASSAYS AND USES THEREOF” (University of Miami, priority 2009, published 2012).

In this assay the test system is NFAT. As to the kind of experiment: Podocyte-NFAT reporter assay (luciferase). The format is cell-based, mouse. Conditions: for baseline NFAT activity: wild type (wt) podocytes, single inhibitor, FIG. 8. From the text: Podocyte-NFAT reporter assays: A podocyte cell line that stably expressed pGL4.30 reporter plasmid (Promega) was generated. pGL4.30 includes the luc2P firefly luciferase gene under the control of the NFAT response element. For LPS treatments both wt and stable TRPC6 knockdown podocyte cell line were transiently transfected with the pGL4.30 and pGL4.74 reporter plasmids (Promega). pGL4.74 includes the hRluc Renilla luciferase gene under the control of the constitutive HSV-TK promoter, serving as an internal control for normalization of the results. Cells were seeded in 96 well plates in standardized cell number and differentiated for three weeks prior to transfection and treatments. Stable cell lines were probed with BRIGHT-GLO Luciferase Assay System (Promega), transiently transfected cells were assayed with DUAL-GLO Luciferase Assay System (Promega). Luminescence was measured on a Molecular Devices luminescence microplate reader SpectraMax L. All experiments were carried out in octuplicate per condition and repeated in three independent experiments.

Regarding `O=S(=O)(NCCNC/C=C/c1ccc(Br)cc1)c1cccc2cnccc12` [H-89], the “baseline NFAT activity” value was “reduction”.
Still for that read-out and setting: then `CN([C@@H](Cc1ccc(OS(=O)(=O)c2cccc3cnccc23)cc1)C(=O)N1CCN(c2ccccc2)CC1)S(=O)(=O)c1cccc2cnccc12` [KN-62], with “reduction”.
On to lipopolysaccharide [LPS], for which the “NFAT activity after pretreatment with the substance” value (wt podocytes, versus low baseline, FIG. 6A) is recorded as “strongly increased”.
